From US10435415B2, “Substituted tetrahydrocarbazole and carbazole carboxamide compounds” (BRISTOL-MYERS SQUIBB COMPANY, priority 2013, dated 2019)
Read-outs that look alike come from different tables or passages of the source.

Tests used:
[1] = target: human recombinant Btk (Homo sapiens (Human), UniProt Q06187); assay: Human Recombinant Btk Enzyme Assay; format: biochemical
[2] = system: BCR-stimulated CD69 expression on B cells in human whole blood; assay: Whole Blood Assay of BCR-Stimulated CD69 Expression on B Cells; format: cell-based
[3] = target: Jak2 tyrosine kinase (Homo sapiens (Human), UniProt O60674); assay: Jak2 Tyrosine Kinase Assay; format: biochemical; details: selectivity of Btk over Jak2
Jak2 tyrosine kinase, sequence (O60674 whole entry): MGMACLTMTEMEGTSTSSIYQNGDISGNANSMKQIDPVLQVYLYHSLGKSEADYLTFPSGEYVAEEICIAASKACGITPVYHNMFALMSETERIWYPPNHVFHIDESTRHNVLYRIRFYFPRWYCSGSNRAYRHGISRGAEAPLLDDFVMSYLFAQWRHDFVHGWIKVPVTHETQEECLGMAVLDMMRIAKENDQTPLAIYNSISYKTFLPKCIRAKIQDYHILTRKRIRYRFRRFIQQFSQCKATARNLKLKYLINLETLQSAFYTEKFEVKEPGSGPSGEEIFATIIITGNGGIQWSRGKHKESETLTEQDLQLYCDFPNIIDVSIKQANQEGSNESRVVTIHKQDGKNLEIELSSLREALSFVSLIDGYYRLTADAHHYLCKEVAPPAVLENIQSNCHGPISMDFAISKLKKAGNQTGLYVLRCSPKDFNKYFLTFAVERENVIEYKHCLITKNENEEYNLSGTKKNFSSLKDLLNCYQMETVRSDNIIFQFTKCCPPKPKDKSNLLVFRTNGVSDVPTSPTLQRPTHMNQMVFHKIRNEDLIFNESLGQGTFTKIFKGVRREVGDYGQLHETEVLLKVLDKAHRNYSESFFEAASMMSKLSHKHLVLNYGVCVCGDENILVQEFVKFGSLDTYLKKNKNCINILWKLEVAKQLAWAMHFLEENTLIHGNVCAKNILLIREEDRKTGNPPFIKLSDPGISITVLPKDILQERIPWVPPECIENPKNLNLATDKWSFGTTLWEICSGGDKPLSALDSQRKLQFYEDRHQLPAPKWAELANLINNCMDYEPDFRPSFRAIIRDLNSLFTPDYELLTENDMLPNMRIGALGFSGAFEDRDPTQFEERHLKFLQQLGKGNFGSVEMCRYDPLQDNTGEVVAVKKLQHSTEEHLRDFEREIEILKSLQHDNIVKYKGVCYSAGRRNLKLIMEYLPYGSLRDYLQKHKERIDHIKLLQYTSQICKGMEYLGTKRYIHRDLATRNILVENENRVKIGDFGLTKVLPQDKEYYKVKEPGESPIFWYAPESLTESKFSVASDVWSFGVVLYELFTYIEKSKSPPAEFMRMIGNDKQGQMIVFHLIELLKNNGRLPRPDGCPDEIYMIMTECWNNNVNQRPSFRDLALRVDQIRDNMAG

human recombinant Btk, sequence (Q06187 whole entry): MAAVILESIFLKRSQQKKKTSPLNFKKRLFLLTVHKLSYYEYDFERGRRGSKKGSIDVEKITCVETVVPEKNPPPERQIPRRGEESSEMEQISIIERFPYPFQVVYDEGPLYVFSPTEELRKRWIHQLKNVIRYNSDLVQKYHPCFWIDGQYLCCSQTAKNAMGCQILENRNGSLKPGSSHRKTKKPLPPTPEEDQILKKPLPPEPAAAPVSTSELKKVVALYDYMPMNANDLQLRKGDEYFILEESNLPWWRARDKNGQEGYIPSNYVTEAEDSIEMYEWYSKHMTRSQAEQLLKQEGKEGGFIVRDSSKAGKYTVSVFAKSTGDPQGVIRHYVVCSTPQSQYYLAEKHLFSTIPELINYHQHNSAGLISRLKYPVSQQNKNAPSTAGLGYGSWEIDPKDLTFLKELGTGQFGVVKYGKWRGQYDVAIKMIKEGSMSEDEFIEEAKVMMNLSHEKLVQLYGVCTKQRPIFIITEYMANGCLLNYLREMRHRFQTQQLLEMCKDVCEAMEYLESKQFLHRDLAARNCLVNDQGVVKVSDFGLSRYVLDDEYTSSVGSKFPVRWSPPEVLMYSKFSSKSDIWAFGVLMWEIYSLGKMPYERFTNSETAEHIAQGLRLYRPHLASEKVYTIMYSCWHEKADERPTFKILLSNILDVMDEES

Row | Molecule | Ratio of Jak2/Btk IC50 values [3] | other results
1 | 3-Chloro-4-(R)-(2-chloro-3-(8-fluoro-1-methyl-2,4-dioxo-1,2-dihydroquinazolin-3(4H)-yl)phenyl)-7-(2-hydroxypropan-2-yl)-9H-carbazole-1-carboxamide [Example 45] |  | IC50 [1]: 0.45 nM; IC50 [2]: 68 nM
2 | Cc1c(-c2c(F)cc(C(N)=O)c3[nH]c4cc(C(C)(C)O)ccc4c23)cccc1-n1c(=O)[nH]c2c(F)cc(F)cc2c1=O (single isomer, unassigned) [Example 50] | 3800 | 
3 | Cc1c(-c2c(F)cc(C(N)=O)c3[nH]c4cc(C(C)(C)O)ccc4c23)cccc1-n1c(=O)[nH]c2cc(F)ccc2c1=O (single isomer, unassigned) [Example 51] | >6700 | 
4 | Cc1c(-c2c(F)cc(C(N)=O)c3[nH]c4cc(C(C)(C)O)ccc4c23)cccc1-n1c(=O)[nH]c2c(F)cc(F)cc2c1=O [Example 49] | >2600 | 
5 | Cc1c(-c2c(C#N)cc(C(N)=O)c3[nH]c4cc(C(C)(C)O)ccc4c23)cccc1-n1c(=O)cc2c(Cl)cccn2c1=O (single isomer, unassigned) [Example 72] | 1600 | 
6 | Cc1c(-c2c(F)cc(C(N)=O)c3[nH]c4cc(C(C)(C)O)ccc4c23)cccc1-n1c(=O)[nH]c2c(F)cc(F)cc2c1=O (single isomer, unassigned) [Example 73] | 2200 | 
7 | Cc1c(-c2c(Cl)cc(C(N)=O)c3[nH]c4cc(C(C)(C)O)ccc4c23)cccc1-n1c(=O)[nH]c2c(F)cc(F)cc2c1=O (single isomer, unassigned) [Example 48] | 3300 | 
8 | Cc1c(-c2c(F)cc(C(N)=O)c3[nH]c4c(c23)CC[C@H](C(C)(C)O)C4)cccc1-n1c(=O)[nH]c2c(F)cccc2c1=O (single isomer, unassigned) [Example 59] |  | IC50 [2]: 260 nM
9 | Cc1c(-c2c(F)cc(C(N)=O)c3[nH]c4cc(C(C)(C)O)ccc4c23)cccc1-n1c(=O)[nH]c2c(Cl)cccc2c1=O (single isomer, unassigned) [Example 54] | 3400 | IC50 ([2]; Homo sapiens, B-cell): 10 nM
